The term Ki denotes the dissociation constant of the complex between target and ligand, obtained from inhibition or displacement. The term Emax denotes the greatest response seen or fitted, relative to the assay's reference. By EC50 is commonly meant the concentration giving half of the maximal effect.

Like-named read-outs stand apart in the source and are kept apart here. A value given as a limit tells only on which side of the number the result lay.

The values below come from patent US20230265151A1, “GIP/GLP1 CO-AGONIST COMPOUNDS” (priority 2020, published 2023).

In test [1] the target is T1, human Gcg receptor (hGcgR) (Homo sapiens, UniProt P47871).
T1 construct: expressed in transfected cells; crude membranes
Nature of the test: [125I]-Glucagon binding, SPA with membranes of HEK293 cells expressing hGcgR.

Test [2] has as its target T2, human GLP-1 receptor (hGLP-1R) (Homo sapiens, UniProt P43220).
T2 construct: expressed in transfected cells; crude membranes
Description: [125I]-GLP-1 binding, SPA with membranes of HEK293 cells expressing hGLP-1R.

A further test addresses hGLP-1R (Homo sapiens, UniProt P43220). Description: Functional cAMP formation (HTRF) in HEK-293 clonal cells expressing hGLP-1R, 0.1% bovine casein, without or with 1.0% human serum albumin. The test is classed as cell-based. Also noted: expressed in transfected cells. To be noted: for EC50: geometric mean. The procedure, abridged: (§1)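 Cells were stimulated with peptide for 30 min at 37° C, then intracellular cAMP was measured by competitive HTRF (665/620 nm ratio) and converted to nM using a cAMP standard curve. Relative EC50 and Emax came from four-parameter logistic fits of percent maximal response against peptide concentration.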

The target in a further test is T3, hGIPR (Homo sapiens, UniProt P48546).
T3 construct: expressed in transfected cells
T3 sequence (P48546 22-466): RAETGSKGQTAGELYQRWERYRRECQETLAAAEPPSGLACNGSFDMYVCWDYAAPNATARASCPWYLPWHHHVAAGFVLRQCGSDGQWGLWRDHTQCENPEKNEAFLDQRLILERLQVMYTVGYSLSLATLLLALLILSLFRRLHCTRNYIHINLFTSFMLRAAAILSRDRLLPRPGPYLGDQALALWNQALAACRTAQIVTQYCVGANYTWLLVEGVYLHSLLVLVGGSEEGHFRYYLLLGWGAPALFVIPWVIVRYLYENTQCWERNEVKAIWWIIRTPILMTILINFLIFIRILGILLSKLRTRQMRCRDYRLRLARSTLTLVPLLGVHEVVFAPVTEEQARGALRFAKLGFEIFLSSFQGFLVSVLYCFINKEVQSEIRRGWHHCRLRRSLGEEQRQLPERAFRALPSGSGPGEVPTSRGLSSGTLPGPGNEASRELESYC
Description: Functional cAMP formation (HTRF) in HEK-293 clonal cells expressing hGIPR, 0.1% bovine casein, without or with 1.0% human serum albumin. The test is classed as cell-based. The procedure, abridged: as §1
For orientation: Changes in cAMP serve as a functional read-out for many G protein-coupled receptors.

The next test addresses T4, hGCGR (Homo sapiens, UniProt P47871).
T4 construct: expressed in transfected cells
Description: Functional cAMP formation (HTRF) in HEK-293 clonal cells expressing hGCGR, 0.1% bovine casein, without or with 1.0% human serum albumin. The test is classed as cell-based. The essentials:
as §1

[3] abbreviates: human GcgR, geometric mean (SEM, n), read-out: Binding Affinity Ki, nM (SEM, n) hGCGR.
[4] abbreviates: human GLP-1R, geometric mean (SEM, n), read-out: Binding Affinity Ki, nM (SEM, n) hGLP-1R.
Where [5] appears, read: 0.1% bovine casein and 1.0% human serum albumin, 37° C., read-out: hGLP-1R EC50, nM (SEM, n).
[6] abbreviates: 0.1% bovine casein and 1.0% human serum albumin, 37° C., geometric mean, read-out: hGIPR EC50, nM (SEM, n).
Setting [7] is: cAMP, incubated at 37° C., 0.1% bovine casein (no human serum albumin), geometric mean, read-out: hGIPR EC50, nM (SEM, n).
Where [8] appears, read: 0.1% bovine casein and 1.0% human serum albumin, 37° C., geometric mean, read-out: hGCGR EC50, nM (SEM, n).
Setting [9] is: cAMP, incubated at 37° C., 0.1% bovine casein (no human serum albumin), geometric mean, read-out: hGCGR EC50, nM (SEM, n).
The mark [10] stands for this setting: HEK293, 0.1% bovine casein and 1.0% human serum albumin, 37° C., percent of maximal response to GIP(1-42)NH2, read-out: hGIPR Emax, % ± SEM.

T1 sequence (P47871 26-477): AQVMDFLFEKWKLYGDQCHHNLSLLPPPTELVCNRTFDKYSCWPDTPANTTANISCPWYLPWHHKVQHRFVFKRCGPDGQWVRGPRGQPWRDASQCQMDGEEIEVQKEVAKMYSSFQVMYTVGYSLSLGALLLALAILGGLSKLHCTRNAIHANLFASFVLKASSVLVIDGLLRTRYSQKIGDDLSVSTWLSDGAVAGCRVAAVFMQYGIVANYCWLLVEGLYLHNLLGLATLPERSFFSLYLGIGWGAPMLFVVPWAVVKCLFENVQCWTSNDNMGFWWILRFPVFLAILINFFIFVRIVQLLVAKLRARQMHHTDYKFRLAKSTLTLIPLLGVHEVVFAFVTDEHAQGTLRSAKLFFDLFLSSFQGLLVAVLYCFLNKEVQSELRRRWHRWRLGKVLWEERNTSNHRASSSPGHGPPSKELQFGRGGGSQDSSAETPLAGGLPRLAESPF
T4 sequence (P47871 26-477): as above
T2 sequence (P43220 24-463): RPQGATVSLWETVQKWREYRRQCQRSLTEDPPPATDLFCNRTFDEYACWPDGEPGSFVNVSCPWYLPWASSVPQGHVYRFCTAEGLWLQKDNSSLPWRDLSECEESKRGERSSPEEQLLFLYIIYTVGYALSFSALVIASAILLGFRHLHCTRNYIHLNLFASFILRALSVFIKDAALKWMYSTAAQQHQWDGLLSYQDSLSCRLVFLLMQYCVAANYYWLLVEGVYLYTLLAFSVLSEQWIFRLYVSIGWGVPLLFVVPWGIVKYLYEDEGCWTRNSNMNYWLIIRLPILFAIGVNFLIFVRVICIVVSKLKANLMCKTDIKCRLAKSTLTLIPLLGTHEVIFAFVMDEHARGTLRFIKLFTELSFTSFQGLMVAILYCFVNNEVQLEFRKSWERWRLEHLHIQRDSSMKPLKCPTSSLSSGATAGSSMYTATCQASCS
hGLP-1R, sequence (P43220 24-463): as above

In the case of `CC[C@H](C)[C@H](NC(=O)[C@H](CC(C)C)NC(=O)[C@](C)(Cc1ccc(O)cc1)NC(=O)[C@H](CCCCNC(=O)COCCOCCNC(=O)COCCOCCNC(=O)CC[C@H](NC(=O)CC[C@H](NC(=O)CCCCCCCCCOc1ccc(C(=O)O)cc1)C(=O)O)C(=O)O)NC(=O)[C@@H](NC(=O)[C@H](Cc1ccccc1)NC(=O)[C@H](CCCN)NC(=O)C(C)(C)NC(=O)[C@H](CCC(N)=O)NC(=O)[C@H](C)NC(=O)[C@H](CCC(N)=O)NC(=O)[C@H](CCCN)NC(=O)[C@H](CC(=O)O)NC(=O)[C@H](CC(C)C)NC(=O)[C@](C)(CC(C)C)NC(=O)[C@@H](NC(=O)C(C)(C)NC(=O)[C@H](Cc1ccncc1)NC(=O)[C@H](CC(=O)O)NC(=O)[C@H](CO)NC(=O)[C@@H](NC(=O)[C@](C)(Cc1ccccc1F)NC(=O)[C@@H](NC(=O)CNC(=O)[C@H](CCC(=O)O)NC(=O)C(C)(C)NC(=O)[C@@H](N)Cc1ccc(O)cc1)[C@@H](C)O)[C@@H](C)O)[C@@H](C)CC)[C@@H](C)CC)C(=O)N[C@@H](CCCCNC(=O)COCCOCCNC(=O)COCCOCCNC(=O)CC[C@H](NC(=O)CC[C@H](NC(=O)CCCCCCCCCOc1ccc(C(=O)O)cc1)C(=O)O)C(=O)O)C(=O)NCC(=O)NCC(=O)N1CCC[C@H]1C(=O)N[C@@H](CO)C(=O)N[C@@H](CO)C(=O)NCC(=O)N[C@@H](C)C(=O)N1CCC[C@H]1C(=O)N1CCC[C@H]1C(=O)N1CCC[C@H]1C(=O)N[C@@H](CO)C(N)=O` [Example 475], the Ki in test [1] came out at 139 nM; in test [2] it was 0.189 nM. Also, the Emax on hGLP-1R (HEK293, read-out: hGLP-1R Emax, % ± SEM, cAMP, 37° C., 0.1% bovine casein, percent of maximal response to GLP-1(7-36)NH2, arithmetic mean) was 116%; at hGIPR (HEK293, read-out: hGIPR Emax, % ± SEM, cAMP, 37° C., 0.1% bovine casein and 1.0% human serum albumin, percent of maximal response to GIP(1-42)NH2), 84.6%. The EC50 at hGLP-1R (hGLP-1R EC50, nM (SEM, n), cAMP, 37° C., 0.1% bovine casein (no human serum albumin)) is 0.143 nM; at hGIPR (hGIPR EC50, nM (SEM, n), cAMP, 37° C., 0.1% bovine casein (no human serum albumin), geometric mean), 0.012 nM; at hGIPR (hGIPR EC50, nM (SEM, n), cAMP, 37° C., 0.1% bovine casein and 1.0% human serum albumin, geometric mean (SEM, n)), 0.211 nM; on hGCGR (hGCGR EC50, nM (SEM, n), cAMP, 37° C., 0.1% bovine casein (no human serum albumin), geometric mean), more than 9950 nM; on hGCGR (hGCGR EC50, nM (SEM, n), cAMP, 37° C., 0.1% bovine casein and 1.0% human serum albumin, geometric mean (SEM, n)), more than 9950 nM.

`CC[C@H](C)[C@H](NC(=O)[C@H](CC(C)C)NC(=O)[C@](C)(Cc1ccc(O)cc1)NC(=O)[C@@H](CCC(=O)O)NC(=O)[C@@H](NC(=O)[C@H](Cc1ccccc1)NC(=O)[C@H](CCC(=O)O)NC(=O)C(C)(C)NC(=O)[C@H](CCC(N)=O)NC(=O)[C@H](C)NC(=O)[C@H](CCCCNC(=O)COCCOCCNC(=O)COCCOCCNC(=O)COCCOCCNC(=O)CC[C@H](NC(=O)CCCCCCCCCCCCC(=O)O)C(=O)O)NC(=O)[C@H](CCCN)NC(=O)[C@H](CC(=O)O)NC(=O)[C@H](CC(C)C)NC(=O)[C@](C)(CC(C)C)NC(=O)[C@@H](NC(=O)[C@H](CO)NC(=O)[C@H](Cc1ccncc1)NC(=O)[C@H](CC(=O)O)NC(=O)[C@H](CO)NC(=O)[C@@H](NC(=O)[C@](C)(Cc1ccccc1F)NC(=O)[C@@H](NC(=O)CNC(=O)[C@H](CCC(=O)O)NC(=O)C(C)(C)NC(=O)[C@@H](N)Cc1ccc(O)cc1)[C@@H](C)O)[C@@H](C)O)[C@@H](C)CC)[C@@H](C)CC)C(=O)N[C@@H](CCC(=O)O)C(=O)NCC(=O)NCC(=O)N[C@@H](CCCCNC(=O)COCCOCCNC(=O)COCCOCCNC(=O)COCCOCCNC(=O)CC[C@H](NC(=O)CCCCCCCCCCCCC(=O)O)C(=O)O)C(=O)N[C@@H](CO)C(=O)N[C@@H](CO)C(=O)NCC(=O)N[C@@H](C)C(=O)N1CCC[C@H]1C(=O)N1CCC[C@H]1C(=O)N1CCC[C@H]1C(=O)N[C@@H](CO)C(N)=O` [Example 30]: the results for the Ki in test [1] (setting [3]) and in test [2] (setting [4]) were more than 966 nM and 2.66 nM, respectively. Also, the EC50 on hGLP-1R (setting [5]) was 18.3 nM; at hGIPR (setting [6]), 0.337 nM; on hGIPR (setting [7]), 0.0175 nM; on hGCGR (setting [8]) it was more than 9950 nM; at hGCGR (setting [9]) it was more than 9950 nM. Further, the Emax came out at 96.5 ± 0.219% on hGLP-1R (HEK293, 0.1% bovine casein and 1.0% human serum albumin, 37° C., percent of maximal response to GLP-1(7-36)NH2, read-out: hGLP-1R Emax, % ± SEM); 97.8 ± 10.7% at hGLP-1R (HEK293, percent of maximal response to GLP-1(7-36)NH2, 37° C., 0.1% bovine casein, arithmetic mean, read-out: hGLP-1R Emax, % ± SEM).

For the compound `CC[C@H](C)[C@H](NC(=O)[C@H](CC(C)C)NC(=O)[C@](C)(Cc1ccc(O)cc1)NC(=O)[C@@H](CCC(=O)O)NC(=O)[C@@H](NC(=O)[C@H](Cc1ccccc1)NC(=O)[C@H](CCC(=O)O)NC(=O)C(C)(C)NC(=O)[C@H](CCC(N)=O)NC(=O)[C@H](C)NC(=O)[C@H](CCCCNC(=O)COCCOCCNC(=O)COCCOCCNC(=O)CC[C@H](NC(=O)CCCCCCCCCCCCC(=O)O)C(=O)O)NC(=O)[C@H](CCCN)NC(=O)[C@H](CC(=O)O)NC(=O)[C@H](CC(C)C)NC(=O)[C@](C)(CC(C)C)NC(=O)[C@@H](NC(=O)[C@H](CO)NC(=O)[C@@](C)(NC(=O)[C@H](CC(=O)O)NC(=O)[C@H](CO)NC(=O)[C@@H](NC(=O)[C@](C)(Cc1ccccc1F)NC(=O)[C@@H](NC(=O)CNC(=O)[C@H](CCC(=O)O)NC(=O)C(C)(C)NC(=O)[C@@H](N)Cc1ccc(O)cc1)[C@@H](C)O)[C@@H](C)O)C(C)C)[C@@H](C)CC)[C@@H](C)CC)C(=O)N[C@@H](CCC(=O)O)C(=O)NCC(=O)NCC(=O)N[C@@H](CCCCNC(=O)COCCOCCNC(=O)COCCOCCNC(=O)CC[C@H](NC(=O)CCCCCCCCCCCCC(=O)O)C(=O)O)C(=O)N[C@@H](CO)C(=O)N[C@@H](CO)C(=O)NCC(=O)N[C@@H](C)C(=O)N1CCC[C@H]1C(=O)N1CCC[C@H]1C(=O)N1CCC[C@H]1C(=O)N[C@@H](CO)C(N)=O` [Example 52], the inhibitory constant (Ki) in test [1] (setting [3]) is more than 966 nM; in test [2] (setting [4]) it was 1.16 nM. For the same compound, the EC50 is 0.384 nM at hGLP-1R (cAMP, incubated at 37° C., 0.1% bovine casein (no human serum albumin), read-out: hGLP-1R EC50, nM (SEM, n)); more than 9950 nM at hGCGR (setting [8]); more than 9950 nM at hGCGR (setting [9]). Also, the maximal effect (Emax) at hGIPR (setting [10]) turned out to be 87.6%.

In the case of `CC[C@H](C)[C@H](NC(=O)[C@H](CC(C)C)NC(=O)[C@](C)(Cc1ccc(O)cc1)NC(=O)[C@@H](CCC(=O)O)NC(=O)[C@@H](NC(=O)[C@H](Cc1ccccc1)NC(=O)[C@H](CCC(=O)O)NC(=O)C(C)(C)NC(=O)[C@H](CCC(N)=O)NC(=O)[C@H](C)NC(=O)[C@H](CCCCNC(=O)COCCOCCNC(=O)COCCOCCNC(=O)CC[C@H](NC(=O)CCCCCCCCCCCCC(=O)O)C(=O)O)NC(=O)[C@H](CCCN)NC(=O)[C@H](CC(=O)O)NC(=O)[C@H](CC(C)C)NC(=O)[C@](C)(CC(C)C)NC(=O)[C@@H](NC(=O)[C@H](CO)NC(=O)[C@H](Cc1ccncc1)NC(=O)[C@H](CC(=O)O)NC(=O)[C@H](CO)NC(=O)[C@@H](NC(=O)[C@](C)(Cc1ccccc1F)NC(=O)[C@@H](NC(=O)CNC(=O)[C@H](CCC(=O)O)NC(=O)C(C)(C)NC(=O)[C@@H](N)Cc1ccc(O)cc1)[C@@H](C)O)[C@@H](C)O)[C@@H](C)CC)[C@@H](C)CC)C(=O)N[C@@H](CCCCNC(=O)COCCOCCNC(=O)COCCOCCNC(=O)CC[C@H](NC(=O)CCCCCCCCCCCCC(=O)O)C(=O)O)C(=O)NCC(=O)NCC(=O)N1CCC[C@H]1C(=O)N[C@@H](CO)C(=O)N[C@@H](CO)C(=O)NCC(=O)N[C@@H](C)C(=O)N1CCC[C@H]1C(=O)N1CCC[C@H]1C(=O)N1CCC[C@H]1C(=O)N[C@@H](CO)C(N)=O` [Example 17], in test [1] (setting [3]), the Ki was more than 966 nM. Moreover, the EC50 is 48.9 nM at hGLP-1R (setting [5]); 0.605 nM on hGIPR (setting [6]); 0.0129 nM at hGIPR (setting [7]); more than 9950 nM at hGCGR (setting [8]); more than 9950 nM on hGCGR (setting [9]). For the same compound, the Emax at hGIPR (setting [10]) is 88.9 ± 2.36%; on hGIPR (HEK293, percent of maximal response to GIP(1-42)NH2, 37° C., 0.1% bovine casein, arithmetic mean, read-out: hGIPR Emax, % ± SEM), 97.5 ± 5.04%.
